“And” between values parts separate entries of the source, which are not always exact repeats. Equal entries are not always repeated. “Also recorded” adds a separate entry of the source. Where two headings read alike, the source gives them in different places.
Assays:
[1] = target: T1, wildtype SARS-CoV-2 Nsp15 (Severe acute respiratory syndrome coronavirus 2, UniProt P0DTD1); assay: biochemical; details: for IC50: 150 nM enzyme, 1.2 μM substrate, 30 min, 25 °C, mean (SD), duplicates; for change of inhibitory effect relative to parent analog: comparison of IC50 values; for IC50 versus time: IC50 calculated every 5 min for 30 min; for inhibition model: extra sum-of-squares F test; for Vmax: fit parameter of mixed inhibition model for the named inhibitor
[2] = target: T1, wildtype SARS-CoV-2 Nsp15; assay: Nsp15 inhibition in HEPES buffer assay conditions; format: biochemical; details: 10 nM Nsp15, 500 nM substrate, 100 μM compound
SARS-CoV-2 = SARS-CoV-2 plaque assay in VeroE6/TMPRSS2 cells; format: cell-based; details: for IC50: 24 h infection, MOI = 0.1, read-out: IC50 (viral inhibition, plaque assay)
in vitro = format: cell-based; details: African green monkey, uninfected cells, intracellular ATP
Experimental: (§1) Initially, we grew VeroE6/TMPRSS2 cells overnight in 96-well plates at 10,000 cells per well. The next day, we added increasing concentrations of the tested compound (500, 200, 100, 50, 20, 10, 5, 2, and 1 μM) and DMSO as a control. We let the cells incubate with inhibitors for 24 h. After 24 h, we measured the viability of these cells using the CellTiter-Glo Luminescent Cell Viability Assay (Promega), according to the manufacturer’s instructions. We incubated cells in 100 μl of media with 100 μl of CellTiter-Glo reagent, which contains Ultra-Glo luciferase and the substrate luciferin. The luciferase converts luciferin to luminescent oxyluciferin in the presence of ATP. Viable cells produce more ATP and generate a stronger luminescent signal. We mixed samples by shaking for 10 min and measured luminescence by a VICTOR Nivo Plate Reader (Avantor Science Central).

VeroE6/TMPRSS2 cells = assay: in vitro; format: cell-based; details: uninfected cells, 24 h, intracellular ATP
Experimental: as §1

SARS-CoV-2 RNA = format: cell-based; details: 24 h infection, MOI = 0.1
SARS-CoV-2 Nsp15 = SARS-CoV-2 Nsp15 (Severe acute respiratory syndrome coronavirus 2, UniProt P0DTD1); assay: Reversibility by the dilution method; format: biochemical; details: preincubated 60 min, diluted 1:100
Nsp15 = details: cited from earlier work
[3] = noncompetitive inhibition model, IC50-to-Ki converter, read-out: Predicted Ki
[4] = mixed inhibition model fit, mean ± SD
[5] = mixed inhibition model fit, mean ± SD, read-out: Ki
[6] = Severe acute respiratory syndrome coronavirus 2, VeroE6/TMPRSS2, 24 h

With `O=C1NC(=O)C(=CC=Cc2cncc3ccccc23)S1` [KCO234, 5-(3-isoquinolin-4-yl-allylidene)-thiazolidine-2,4-dione] the IC50 [1] was 7.38 µM, the “change of inhibitory effect relative to parent analog” value [1] was “did not enhance inhibitory activity” and the Ki [1, 3] was 7300 nM.

For `CN1C(=O)SC(=CC=Cc2cccc3ccccc23)C1=O` [KCO250, 3-methyl-5-(3-naphthalen-1-yl-allylidene)-thiazolidine-2,4-dione], the “inhibitory effect on Nsp15 activity” value [1] was “did not inhibit Nsp15 activity; also recorded: lose their inhibitory effect” and the IC50 [1] was greater than 1000 µM.

For `O=C1NC(=S)SC1=CC=Cc1cncc2ccccc12` [KCO251, 5-(3-isoquinolin-4-yl-allylidene)-2-thioxo-thiazolidin-4-one], the “inhibitory effect on Nsp15 activity” value [1] was “submicromolar levels”, the IC50 [1] was 0.931 µM and the “IC50 versus time” value [1] was “consistent through the period of the assay; also recorded: remained constant over the time of the assay”. The “change of inhibitory effect relative to parent analog” value [1] was “eightfold increase in inhibition potency”, the “inhibition model” value [1] was “reversible mixed inhibition model” and the Vmax [1] was 3.38 ± 0.170 µM/min. It also gave a α [1, 4] of 0.293 ± 0.280, a Ki [1, 5] of 471 ± 330 nM and a Ki [1, 3] of 856 nM. The “inhibition under HEPES assay conditions” value [2] was “inhibited Nsp15 more potently than tipiracil under these conditions”, the “selectivity index (SI)” value (SARS-CoV-2; CC50 over IC50) was ~13 and > 10 and the IC50 (SARS-CoV-2; [6]) was 24 µM. For the same compound, the CC50 at 24 h (in vitro) was greater than 300 µM, the CC50 (VeroE6/TMPRSS2 cells) was 311 ± 120 µM and the “intracellular SARS-CoV-2 RNA” value (SARS-CoV-2 RNA) was “significantly reduced viral RNA in a dose-dependent manner”. The “Nsp15 activity after inhibitor dilution” value (SARS-CoV-2 Nsp15) was “recovered its activity”.

For `O=C1NC(=O)C(=CC=Cc2c3ccccc3cc3ccccc23)S1` [KCO035, 5-(3-anthracen-9-yl-allylidene)-thiazolidine-2,4-dione], the “inhibitory effect on Nsp15 activity” value [1] was “mild inhibitory effect”, the IC50 [1] was 7.21 µM and the inhibition at 100 µM ([1]; 100 μM compound) was roughly 80%. It also gave a Ki [1, 3] of 7140 nM.

With `CN1C(=O)SC(=CC=Cc2c3ccccc3cc3ccccc23)C1=O` [KCO238, 3-methyl-5-(3-anthracen-9-yl-allylidene)-thiazolidine-2,4-dione] the “inhibitory effect on Nsp15 activity” value [1] was “did not inhibit Nsp15 activity; also recorded: lose their inhibitory effect” and the IC50 [1] was 106 µM.

For `O=C1NC(=O)C(=CC=Cc2ccnc3ccccc23)S1` [KCO048], the “inhibitory effect on Nsp15 activity” value [1] was “low micromolar concentrations”, the IC50 [1] was 1.35 µM and the “change of inhibitory effect relative to parent analog” value [1] was “threefold greater inhibitory effect than KCO231”. The Ki [1, 3] was 1270 nM.

In the case of `N=C1CCCN1Cc1nc(O)nc(O)c1Cl` [Tipiracil, tipiracil, reference compound], the “inhibitory effect on Nsp15 activity” value [1] is reported as “did not inhibit Nsp15 activity”, the IC50 [1] is reported as greater than 1000 µM and the “inhibition under HEPES assay conditions” value [2] is reported as “did inhibit Nsp15 under these conditions but to a lesser extent than KCO237 and KCO251”. For the same compound, the IC50 (Nsp15) was 7.5 µM.

For `Oc1c(Cl)cc(Cl)c(Cl)c1Cc1c(O)c(Cl)cc(Cl)c1Cl` [hexachlorophene], the IC50 (Nsp15) is listed as 1 µM.

For `O=C1NC(=S)SC1=CC=Cc1ccnc2ccccc12` [KCO237, 5-(3-quinolin-4-yl-allylidene)-2-thioxo-thiazolidine-4-one], the “inhibitory effect on Nsp15 activity” value [1] was “submicromolar levels”, the IC50 [1] was 0.304 µM and the Ki ([1]; Cheng–Prusoff equation, noncompetitive inhibition assumed, read-out: predicted Ki) was 230 nM. The “IC50 versus time” value [1] was “consistent through the period of the assay; also recorded: remained constant over the time of the assay”, the “change of inhibitory effect relative to parent analog” value [1] was “fivefold increase in potency compared with KCO048” and the “inhibition model” value [1] was “reversible mixed inhibition model”. For the same compound, the Vmax [1] was 1.57 ± 0.0568 µM/min, the α [1, 4] was 0.343 ± 0.188 and the Ki [1, 5] was 318 ± 134 nM. The Ki [1, 3] was 229 nM, the “inhibition under HEPES assay conditions” value [2] was “inhibited Nsp15 more potently than tipiracil under these conditions” and the IC50 (SARS-CoV-2) was 13.9 ± 1.95 µM. The IC50 (SARS-CoV-2; [6]) was 14 µM, the CC50 at 24 h (in vitro) was greater than 500 µM and the “intracellular SARS-CoV-2 RNA” value (SARS-CoV-2 RNA) was “significantly reduced viral RNA in a dose-dependent manner”. For the same compound, the “Nsp15 activity after inhibitor dilution” value (SARS-CoV-2 Nsp15) was “recovered its activity”.

In the case of `O=C1NC(=S)SC1=CC=Cc1c2ccccc2cc2ccccc12` [KCO230, 5-(3-anthracen-9-yl-allylidene)-2-thioxo-thiazolidin-4-one], the IC50 [1] is reported as 4.58 µM, the “change of inhibitory effect relative to parent analog” value [1] is reported as “nearly doubled” and the Ki [1, 3] is reported as 4500 nM.

For `O=C1C(SCCO)=C(SCCO)C(=O)c2ccccc21` [NSC95397], the IC50 (Nsp15) is given as 43 µM.

With `O=C1NC(=O)C(=CC=Cc2ccccc2)S1` [KCO036, 5-(3-Phenyl-allylidene)-thiazolidine-2,4-dione] the “inhibitory effect on Nsp15 activity” value [1] was “weak inhibitor”, the IC50 [1] was 9.4 µM and the “change of inhibitory effect relative to parent analog” value [1] was “reduced inhibitory effect”. It also gave a Ki [1, 3] of 9330 nM.

In the case of `O=C1NC(=O)C(=CC=Cc2cccc3ccccc23)S1` [KCO231, 5-(3-naphthalen-1-yl-allylidene)-thiazolidine-2,4-dione], the IC50 [1] is reported as 4.41 µM, the “change of inhibitory effect relative to parent analog” value [1] is reported as “doubled the inhibitory effect” and the Ki [1, 3] is reported as 4340 nM.

In the case of `Oc1ccc2ccccc2c1SSc1c(O)ccc2ccccc12` [IPA-3], the IC50 (Nsp15) is listed as 7 µM and the “inhibition mechanism” value (Nsp15) is listed as “irreversibly inhibited Nsp15”.

In the case of `O=C1NC(=O)C(=CC=Cc2cccc3ccncc23)S1` [KCO235, 5-(3-isoquinolin-8-yl-allylidene)-thiazolidine-2,4-dione], the IC50 [1] is reported as 4.17 µM, the “change of inhibitory effect relative to parent analog” value [1] is reported as “moderate increase in inhibitory effect” and the Ki [1, 3] is reported as 4100 nM.

For `O=C1NC(=S)SC1=CC=Cc1cccc2ccccc12` [KCO249, 5-(3-naphthalen-1-yl-allylidene)-2-thioxo-thiazolidin-4-one], the “inhibitory effect on Nsp15 activity” value [1] was “low micromolar concentrations”, the “change of inhibitory effect relative to parent analog” value [1] was “enhanced its inhibitory effect by sixfold” and the Ki [1, 3] was 1280 nM.

With `O=C1NC(=O)C(=CC=Cc2ccc3cnccc3c2)S1` [KCO236, 5-(3-isoquinolin-6-yl-allylidene)-thiazolidine-2,4-dione] the “inhibitory effect on Nsp15 activity” value [1] was “submicromolar levels”, the IC50 [1] was 0.932 µM and the “change of inhibitory effect relative to parent analog” value [1] was “moderate increase in inhibitory effect”. It also gave a Ki [1, 3] of 857 nM.

— PMC12303054, “First-in-class inhibitors of Nsp15 endoribonuclease of SARS-CoV-2: Modeling, synthesis, and enzymatic assay of thiazolidinedione and rhodanine analogs” (The Journal of Biological Chemistry, 2025)
